Consider 1 molecule from PubChem BioAssay AID387.

In this assay the target is Farnesyl pyrophosphate synthase (Homo sapiens) (UniProt P14324). Nature of the assay: ligand-induced stabilization of human FDPS – biophysical, DSF, SYPRO orange, purified protein (AID 387). As to conditions: DSF thermal shift, at 10 µM, protein 2 µM, buffer 10 mM HEPES, pH 7.5, NaCl 150 mM, MgCl4 50 µM, active compounds read high.
Sequence of Farnesyl pyrophosphate synthase (Homo sapiens) (P14324 whole entry, looked up): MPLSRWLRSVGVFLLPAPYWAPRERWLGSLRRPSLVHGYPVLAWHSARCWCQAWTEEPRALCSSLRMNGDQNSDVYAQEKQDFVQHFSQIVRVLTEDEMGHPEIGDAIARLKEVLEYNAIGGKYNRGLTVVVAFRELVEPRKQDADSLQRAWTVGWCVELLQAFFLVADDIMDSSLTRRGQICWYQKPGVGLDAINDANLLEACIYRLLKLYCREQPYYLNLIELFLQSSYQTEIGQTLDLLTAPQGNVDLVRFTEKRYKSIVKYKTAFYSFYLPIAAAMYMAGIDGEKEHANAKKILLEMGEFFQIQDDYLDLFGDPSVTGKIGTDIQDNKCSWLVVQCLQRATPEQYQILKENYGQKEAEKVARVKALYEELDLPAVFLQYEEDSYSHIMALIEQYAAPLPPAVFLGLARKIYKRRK

With `O=[P+](O)C(O)(Cc1cccnc1)P(=O)(O)O` (stereo unspecified), the Tm shift was 4.13 Celsius.
